{"source": "paper PMC4980431", "about": "“Ctf4 Is a Hub in the Eukaryotic Replisome that Links Multiple CIP-Box Proteins to the CMG Helicase” (Molecular Cell, 2016)", "molecules": {"B1": {"name": "Tof2 peptide 497–517 (peptide)", "peptide": "fluorescein-SHAKDVKIQETIRKLNRFKPT", "notes": "Tof2, yeast, amino acids 497-517; also called Tof2 CIP-box peptide; peptide containing the Tof2 CIP-box; source: synthetic peptide (Cambridge Peptides)"}, "B2": {"name": "GST-Dna2 CIP-box 207–223 (domain or fragment, yeast)", "chain": "SLRNIDDILDDIEGDLT", "notes": "Dna2, budding yeast, residues 207-223 (CIP-box)"}, "B3": {"name": "Dna2 peptide 207–223 (peptide)", "peptide": "fluorescein-SLRNIDDILDDIEGDLT", "notes": "Dna2, yeast, residues 207-223; also called Dna2 CIP-box peptide; isolated peptide containing the Dna2 CIP-box; source: synthetic peptide (Cambridge Peptides)"}}, "key": {"Ctf4 471–927 [1]": {"system": "Ctf4 471–927", "assay": "Native mass spectrometry", "assay_type": "binding, budding yeast", "conditions": "for direct binding to Ctf4 (in words): 500 mM ammonium acetate, 5-fold or 10-fold molar excess of peptide, 100 μM protein, minimum 30 min", "description": "In preparation for non-denaturing nano-electrospray ionization mass spectrometry (native mass spectrometry), Ctf4 471–927 was subjected to two successive rounds of buffer exchange into 500 mM ammonium acetate using illustra NAP-5 columns (GE Healthcare). Following buffer exchange, a 5-fold or 10-fold molar excess of Dna2 peptide 207- […] -223 or Tof2 peptide 497- […] -517 solubilized in 500 mM ammonium acetate was mixed with Ctf4CTD at a final protein concentration of 100 μM and incubated for a minimum of 30 min. Native mass spectra were recorded on a Synapt HDMS instrument (Waters) and calibrated using caesium iodide (100 mg ml^−1) as described previously ([Hernández and Robinson, 2007], [Simon et al., 2014])."}, "Ctf4 471–927 (Ctf4CTD)": {"system": "Ctf4 471–927 (Ctf4CTD)", "assay": "GST pull-down", "assay_type": "binding, budding yeast", "conditions": "GST fusion on Glutathione Sepharose; Ctf4CTD 2 mg/ml, 1 hr 4°C; SDS-PAGE", "description": "For each Dna2 construct to be tested for interaction with Ctf4CTD, a 25-ml E. coli Rosetta2 (DE3) culture overexpressing the GST-fusion construct was pelleted, resuspended in buffer (50 mM Tris [pH 7.0], 500 mM NaCl, 10% [w/v] glycerol, 1 mM DTT, and protease inhibitors) (Sigma), and lysed by sonication. Following centrifugation, the soluble extract was mixed with 50 μl of Glutathione Sepharose beads (GE Healthcare) pre-equilibrated in the same buffer, and incubated under rotation at 4°C for 1 hr. Unbound protein was removed by three consecutive washes with 1 ml of buffer, followed by three 1-ml washes with pull-down buffer (20 mM HEPES [pH 7.2], 150 mM NaCl, 5% [w/v] glycerol, 0.1% Igepal CA-630, 1 mM TCEP, and 1% BSA). Subsequently, 500 μl of purified Ctf4CTD protein at a concentration of 2 mg/ml was added to the Sepharose beads and binding was allowed to take place for an additional 1 hr at 4°C. The binding reaction was stopped by two consecutive washes with 1 ml of pull-down buffer and a final 1 ml wash with pull-down buffer without BSA. The Sepharose beads were mixed with SDS loading dye and Ctf4CTD interactions with the respective bait proteins were detected via SDS-PAGE."}, "Ctf4 471-927 (Ctf4CTD) [2]": {"target": "T1, Ctf4 471-927 (Ctf4CTD) (Saccharomyces cerevisiae, UniProt Q01454)", "T1 sequence (Q01454 471-927)": "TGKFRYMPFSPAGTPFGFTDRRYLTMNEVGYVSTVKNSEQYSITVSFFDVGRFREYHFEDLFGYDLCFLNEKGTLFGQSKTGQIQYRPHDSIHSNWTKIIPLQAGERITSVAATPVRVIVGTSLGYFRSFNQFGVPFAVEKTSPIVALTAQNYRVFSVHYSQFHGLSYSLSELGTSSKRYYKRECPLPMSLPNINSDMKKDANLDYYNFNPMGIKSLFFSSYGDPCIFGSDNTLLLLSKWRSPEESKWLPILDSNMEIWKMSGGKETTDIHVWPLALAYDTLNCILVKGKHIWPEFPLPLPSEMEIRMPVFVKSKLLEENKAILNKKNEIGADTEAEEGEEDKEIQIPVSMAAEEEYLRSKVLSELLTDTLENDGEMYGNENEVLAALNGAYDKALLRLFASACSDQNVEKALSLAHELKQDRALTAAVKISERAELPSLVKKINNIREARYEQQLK", "assay": "Fluorescence anisotropy, peptide binding to Ctf4 471-927", "design": "species or system budding yeast", "conditions": "40 nM fluorescein-labeled Tof2 peptide, pH 7.2, 25°C, single measurement", "description": "(§1) The lowest concentration of peptide at which the binding studies could be performed was determined via peptide calibration curves. Fluorescence anisotropy measurements were recorded in a PHERAstar Plus multi-detection plate reader (BMG Labtech) equipped with fluorescence polarization optic module (λex = 485 nm; λem = 520 nm) at 25°C. Each data point is the mean of 200 flashes/well. The voltage gain was set by adjusting the target mP values of fluorescein-labeled peptides relative to that of fluorescein (35 mP). Serial dilutions of Ctf4CTD were made in 20 mM HEPES (pH 7.2), 140 mM KCl, and 5% (w/v) glycerol in the presence of 40 nM (Sld5 and Tof2) or 50 nM (Dna2) fluorescein-labeled peptide. For Dna2 peptide, each data point is the mean of three independent experiments and curve fitting to the experimental data was performed in pro Fit 6.2 (QuantumSoft) using a Levenberg-Marquardt fitting algorithm in combination with a Gaussian error distribution analysis."}, "Ctf4 471-927 (Ctf4CTD) [3]": {"target": "T1, Ctf4 471-927 (Ctf4CTD)", "conditions": "isolated CIP-boxes; quoted in Discussion; ref Simon et al., 2014; read-out: affinity constant Kd; cited from earlier work", "from_the_text": "The way that CIP-box proteins compete with each other for binding to Ctf4 remains an interesting issue for future investigation."}, "Ctf4-I901E (471-927)": {"system": "Ctf4-I901E (471-927)", "assay": "Fluorescence anisotropy, Sld5 peptide binding to Ctf4-I901E", "design": "species or system budding yeast", "conditions": "Figure S2B; 40 nM fluorescein-labeled Sld5 peptide, pH 7.2, 25°C", "description": "as §1"}, "Ctf4-4E (471-927)": {"system": "Ctf4-4E (471-927)", "assay": "Fluorescence anisotropy, Sld5 peptide binding to Ctf4-4E", "design": "species or system budding yeast", "conditions": "Figure S2B; 40 nM fluorescein-labeled Sld5 peptide, pH 7.2, 25°C", "description": "as §1"}, "Ctf4 471–927 [4]": {"target": "T2, Ctf4 471–927 (budding yeast, UniProt Q01454 471-927)", "T2 construct": "also called Ctf4CTD; source: purified Ctf4CTD protein", "T2 sequence (looked up)": "T1 sequence (Q01454 471-927)", "assay": "native MS; 5-fold or 10-fold molar excess of peptide mixed with 100 μM Ctf4CTD in 500 mM ammonium acetate, at least 30 min", "conditions": "both partners purified"}, "Ctf4 471–927 [5]": {"target": "T2, Ctf4 471–927", "assay": "pull-down; GST fusion on Glutathione Sepharose beads; 500 μl purified Ctf4CTD at 2 mg/ml, 1 hr at 4°C; 20 mM HEPES pH 7.2, 150 mM NaCl, 5% glycerol, 0.1% Igepal CA-630, 1 mM TCEP, 1% BSA; SDS-PAGE", "conditions": "both partners purified"}, "Ctf4 471–927 [6]": {"target": "T2, Ctf4 471–927", "assay": "fluorescence polarisation; fluorescence anisotropy; serial dilutions of Ctf4CTD with 40 nM (Sld5, Tof2) or 50 nM (Dna2) fluorescein-labeled peptide; 20 mM HEPES pH 7.2, 140 mM KCl, 5% glycerol, 25°C", "conditions": "both partners purified"}}, "note": "Entries after “also recorded” stand apart in the source; their conditions may differ. Where no end group is shown, it is not given here. fluorescein = amino-terminal fluorescein label"}
{"molecule": "SHAKDVKIQETIRKLNRFKPT [Tof2 peptide]", "values": [{"measurement": "direct binding to Ctf4 (in words)", "setting": "Ctf4 471–927 [1]; listed as Tof2 CIP", "value": "binds directly to Ctf4"}, {"measurement": "direct binding to Ctf4 (in words)", "setting": "Ctf4 471–927 [1]; listed as peptide containing the Tof2 CIP-box", "value": "could indeed bind directly to Ctf4 in vitro"}, {"measurement": "hierarchy of affinities / occupancy of binding sites by CIP-box peptides", "setting": "Ctf4 471–927 [1]; hierarchy of affinities said to be reflected in native MS occupancy, Figures S3B and S4A, Simon et al., 2014", "value": "Sld5 > Pol1 > Dna2 > Tof2"}, {"measurement": "pull-down of Ctf4 (in words)", "setting": "Ctf4 471–927 (Ctf4CTD)", "value": "could indeed bind directly to Ctf4 in vitro"}, {"measurement": "Kd (result in words)", "setting": "Ctf4 471-927 (Ctf4CTD) [2]", "value": "too weak to be quantified reliably"}, {"measurement": "Kd (result in words)", "setting": "Ctf4 471-927 (Ctf4CTD) [2]; listed as Tof2", "value": "not determinable"}]}
{"molecule": "CIP-box of Sld5: isolated CIP-box of Sld5, affinity quoted from Simon et al., 2014 (MDINIDDILAELDKETTAVD; fluorescein label (N-terminal probable); the exact peptide limits are in Simon et al. 2014)", "values": [{"measurement": "Kd", "setting": "Ctf4 471-927 (Ctf4CTD) [3]", "value": 5, "unit": "µM"}]}
{"molecule": "Sld5 peptide (1-19): isolated peptide containing the Sld5 CIP-box, residues 1-19 (MDINIDDILAELDKETTAV; also: fluorescein-labeled, end not given here; UniProt Q03406 1-19, looked up, fragment)", "values": [{"measurement": "binding to Ctf4-I901E (in words)", "setting": "Ctf4-I901E (471-927)", "value": "blocked binding; also recorded: neither Ctf4-4E nor Ctf4-I901E could bind"}, {"measurement": "binding to Ctf4-4E (in words)", "setting": "Ctf4-4E (471-927)", "value": "blocked binding; also recorded: neither Ctf4-4E nor Ctf4-I901E could bind"}]}
{"molecule": "B1", "values": [{"measurement": "binding result", "setting": "Ctf4 471–927 [4]", "value": "binds"}]}
{"molecule": "B2", "values": [{"measurement": "binding result", "setting": "Ctf4 471–927 [5]", "value": "binds"}]}
{"molecule": "B3", "values": [{"measurement": "Kd", "setting": "Ctf4 471–927 [6]", "value": 230, "unit": "µM"}]}
